Test results: ChEMBL document CHEMBL4800728, “Data for DCP probe JNJ-54119936” (2021)
Active and inactive are the calls of the source. The rule behind the calls is not given here.

Key:
[1] = biological target: Thyroid hormone receptor alpha (Homo sapiens) (UniProt P10827); assay: TRalpha Indigo Bioscience nuclear receptor screen; conditions: Compound concentration 0.3 uM
[2] = biological target: GABA-A receptor; anion channel (Rattus norvegicus) (UniProt O09028+P15431+P18506+P18508+P19969+P20236+P23574+P23576+P28471+P28473+P30191+P62813+P63079+P63138+Q91ZM7+Q9ES14); conditions: Compound concentration 10.0 uM
[3] = biological target: Calcium/calmodulin-dependent protein kinase type 1D (Homo sapiens) (UniProt Q8IU85); assay: CaMKIdelta Invitrogen kinase panel; conditions: Compound concentration 10.0 uM
[4] = biological target: 5-hydroxytryptamine receptor 5A (Homo sapiens) (UniProt P47898); conditions: Compound concentration 10.0 uM
Sequence of 5-hydroxytryptamine receptor 5A (Homo sapiens) (P47898 whole entry): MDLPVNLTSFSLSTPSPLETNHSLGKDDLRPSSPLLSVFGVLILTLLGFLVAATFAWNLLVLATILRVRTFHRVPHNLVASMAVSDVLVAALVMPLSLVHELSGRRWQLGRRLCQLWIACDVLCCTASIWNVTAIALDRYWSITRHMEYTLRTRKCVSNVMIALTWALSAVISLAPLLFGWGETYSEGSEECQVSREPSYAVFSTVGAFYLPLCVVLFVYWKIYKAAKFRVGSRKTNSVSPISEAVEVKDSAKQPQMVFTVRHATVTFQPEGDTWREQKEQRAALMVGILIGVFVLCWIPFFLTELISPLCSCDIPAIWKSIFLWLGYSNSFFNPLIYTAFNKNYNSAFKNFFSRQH

[5] = biological target: 5-hydroxytryptamine receptor 7 (Homo sapiens) (UniProt P34969); conditions: Compound concentration 10.0 uM
[6] = biological target: Adenosine receptor A3 (Homo sapiens) (UniProt P0DMS8); assay: A3 (h) CEREP screen
Sequence of Adenosine receptor A3 (Homo sapiens) (P0DMS8 whole entry): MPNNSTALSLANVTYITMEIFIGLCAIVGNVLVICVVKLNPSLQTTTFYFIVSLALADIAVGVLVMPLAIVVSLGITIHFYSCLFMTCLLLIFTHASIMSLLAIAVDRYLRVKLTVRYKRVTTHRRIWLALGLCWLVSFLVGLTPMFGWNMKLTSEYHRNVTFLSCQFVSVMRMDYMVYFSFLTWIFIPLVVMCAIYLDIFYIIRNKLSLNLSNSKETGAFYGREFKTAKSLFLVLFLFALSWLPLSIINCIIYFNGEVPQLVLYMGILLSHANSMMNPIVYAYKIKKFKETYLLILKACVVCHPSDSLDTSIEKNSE

[7] = biological target: Serine/threonine-protein kinase PLK3 (Homo sapiens) (UniProt Q9H4B4); assay: Plk3 Invitrogen kinase panel; conditions: Compound concentration 10.0 uM
Sequence of Serine/threonine-protein kinase PLK3 (Homo sapiens) (Q9H4B4 whole entry, looked up): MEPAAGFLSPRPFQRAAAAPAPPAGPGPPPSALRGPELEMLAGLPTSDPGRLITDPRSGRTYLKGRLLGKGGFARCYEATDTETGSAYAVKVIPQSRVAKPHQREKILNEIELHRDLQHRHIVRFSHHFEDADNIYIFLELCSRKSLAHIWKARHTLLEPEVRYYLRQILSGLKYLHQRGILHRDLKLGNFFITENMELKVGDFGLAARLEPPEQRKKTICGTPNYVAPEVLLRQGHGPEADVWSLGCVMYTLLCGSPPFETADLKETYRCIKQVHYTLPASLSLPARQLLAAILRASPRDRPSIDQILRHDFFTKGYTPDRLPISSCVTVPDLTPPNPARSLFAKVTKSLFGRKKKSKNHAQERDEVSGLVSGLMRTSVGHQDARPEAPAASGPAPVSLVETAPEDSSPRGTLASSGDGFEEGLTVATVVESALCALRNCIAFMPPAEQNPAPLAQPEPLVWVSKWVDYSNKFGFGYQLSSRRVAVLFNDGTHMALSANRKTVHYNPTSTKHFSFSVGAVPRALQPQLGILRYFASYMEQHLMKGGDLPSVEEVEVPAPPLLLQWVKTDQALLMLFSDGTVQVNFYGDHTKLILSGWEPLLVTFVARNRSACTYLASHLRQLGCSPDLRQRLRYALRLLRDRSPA

[8] = biological target: T1, Bile acid receptor (Homo sapiens) (UniProt Q96RI1); assay: FXR Indigo Bioscience nuclear receptor screen
T1 sequence (whole entry): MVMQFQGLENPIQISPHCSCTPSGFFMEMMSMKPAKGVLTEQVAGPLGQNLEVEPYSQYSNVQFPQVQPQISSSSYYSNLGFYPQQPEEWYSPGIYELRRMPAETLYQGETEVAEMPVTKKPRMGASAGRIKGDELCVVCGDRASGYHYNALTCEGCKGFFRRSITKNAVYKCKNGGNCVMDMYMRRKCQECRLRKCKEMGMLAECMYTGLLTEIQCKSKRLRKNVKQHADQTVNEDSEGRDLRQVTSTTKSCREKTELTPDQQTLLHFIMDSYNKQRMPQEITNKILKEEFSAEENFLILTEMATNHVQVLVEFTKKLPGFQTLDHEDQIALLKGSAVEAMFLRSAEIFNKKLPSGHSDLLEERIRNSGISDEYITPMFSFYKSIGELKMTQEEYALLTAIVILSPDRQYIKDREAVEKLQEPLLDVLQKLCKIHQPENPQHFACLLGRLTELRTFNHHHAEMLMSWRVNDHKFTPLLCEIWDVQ

[9] = biological target: Alpha-1B adrenergic receptor (Homo sapiens) (UniProt P35368); conditions: Compound concentration 10.0 uM
[10] = biological target: Peroxisome proliferator-activated receptor alpha (Homo sapiens, UniProt Q07869); assay: (§1) PPARalpha In-house nuclear receptor screen
Sequence of Peroxisome proliferator-activated receptor alpha (Q07869 whole entry): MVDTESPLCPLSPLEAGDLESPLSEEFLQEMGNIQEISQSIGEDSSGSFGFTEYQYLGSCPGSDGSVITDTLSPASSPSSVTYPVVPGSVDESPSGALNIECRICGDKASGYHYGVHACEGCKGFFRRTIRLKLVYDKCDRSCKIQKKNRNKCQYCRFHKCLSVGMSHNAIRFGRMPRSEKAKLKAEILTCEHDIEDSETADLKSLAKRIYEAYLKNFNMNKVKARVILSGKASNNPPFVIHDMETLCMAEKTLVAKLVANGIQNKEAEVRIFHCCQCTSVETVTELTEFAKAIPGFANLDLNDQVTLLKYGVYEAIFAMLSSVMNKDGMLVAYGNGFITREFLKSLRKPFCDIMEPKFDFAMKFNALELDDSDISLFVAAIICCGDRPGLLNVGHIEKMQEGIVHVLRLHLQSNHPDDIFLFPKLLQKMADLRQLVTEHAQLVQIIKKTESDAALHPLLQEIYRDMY

[11] = biological target: Peroxisome proliferator-activated receptor alpha (Homo sapiens) (UniProt Q07869); assay: as §1; conditions: Compound concentration 3.0 uM
Sequence of Peroxisome proliferator-activated receptor alpha (Homo sapiens) (Q07869 whole entry): as above

[12] = biological target: Cyclin-dependent kinase 1/cyclin B (Homo sapiens) (UniProt P06493+P14635+Q8WWL7+O95067); assay: CDK1/cyclinB Invitrogen kinase panel; type: protein-complex assay; conditions: Compound concentration 10.0 uM
[13] = biological target: Alpha-2B adrenergic receptor (Homo sapiens) (UniProt P18089); conditions: Compound concentration 10.0 uM
[14] = biological target: D(2) dopamine receptor (Homo sapiens) (UniProt P14416); assay: D2S (h) CEREP screen; conditions: Compound concentration 1.0 uM
Sequence of D(2) dopamine receptor (Homo sapiens) (P14416 whole entry, the tested form may be a part): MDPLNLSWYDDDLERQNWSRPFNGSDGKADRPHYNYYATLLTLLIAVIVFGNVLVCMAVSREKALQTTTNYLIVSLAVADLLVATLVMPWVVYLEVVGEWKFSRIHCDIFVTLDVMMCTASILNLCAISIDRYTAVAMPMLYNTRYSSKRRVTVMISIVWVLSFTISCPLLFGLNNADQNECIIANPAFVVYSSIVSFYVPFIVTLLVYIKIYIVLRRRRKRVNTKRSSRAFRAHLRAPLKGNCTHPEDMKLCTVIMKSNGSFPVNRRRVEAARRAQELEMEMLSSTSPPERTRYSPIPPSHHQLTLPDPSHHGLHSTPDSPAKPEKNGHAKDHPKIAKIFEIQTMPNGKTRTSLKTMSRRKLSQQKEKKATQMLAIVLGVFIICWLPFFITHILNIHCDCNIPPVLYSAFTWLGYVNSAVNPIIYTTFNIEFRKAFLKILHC

[15] = biological target: Nuclear receptor ROR-gamma (Homo sapiens, UniProt P51449); assay: One-hybrid LBD; design: compound concentration 6 uM
[16] = biological target: Epidermal growth factor receptor (Homo sapiens) (UniProt P00533); assay: EGFR Invitrogen kinase panel; conditions: Compound concentration 10.0 uM
Sequence of Epidermal growth factor receptor (Homo sapiens) (P00533 whole entry): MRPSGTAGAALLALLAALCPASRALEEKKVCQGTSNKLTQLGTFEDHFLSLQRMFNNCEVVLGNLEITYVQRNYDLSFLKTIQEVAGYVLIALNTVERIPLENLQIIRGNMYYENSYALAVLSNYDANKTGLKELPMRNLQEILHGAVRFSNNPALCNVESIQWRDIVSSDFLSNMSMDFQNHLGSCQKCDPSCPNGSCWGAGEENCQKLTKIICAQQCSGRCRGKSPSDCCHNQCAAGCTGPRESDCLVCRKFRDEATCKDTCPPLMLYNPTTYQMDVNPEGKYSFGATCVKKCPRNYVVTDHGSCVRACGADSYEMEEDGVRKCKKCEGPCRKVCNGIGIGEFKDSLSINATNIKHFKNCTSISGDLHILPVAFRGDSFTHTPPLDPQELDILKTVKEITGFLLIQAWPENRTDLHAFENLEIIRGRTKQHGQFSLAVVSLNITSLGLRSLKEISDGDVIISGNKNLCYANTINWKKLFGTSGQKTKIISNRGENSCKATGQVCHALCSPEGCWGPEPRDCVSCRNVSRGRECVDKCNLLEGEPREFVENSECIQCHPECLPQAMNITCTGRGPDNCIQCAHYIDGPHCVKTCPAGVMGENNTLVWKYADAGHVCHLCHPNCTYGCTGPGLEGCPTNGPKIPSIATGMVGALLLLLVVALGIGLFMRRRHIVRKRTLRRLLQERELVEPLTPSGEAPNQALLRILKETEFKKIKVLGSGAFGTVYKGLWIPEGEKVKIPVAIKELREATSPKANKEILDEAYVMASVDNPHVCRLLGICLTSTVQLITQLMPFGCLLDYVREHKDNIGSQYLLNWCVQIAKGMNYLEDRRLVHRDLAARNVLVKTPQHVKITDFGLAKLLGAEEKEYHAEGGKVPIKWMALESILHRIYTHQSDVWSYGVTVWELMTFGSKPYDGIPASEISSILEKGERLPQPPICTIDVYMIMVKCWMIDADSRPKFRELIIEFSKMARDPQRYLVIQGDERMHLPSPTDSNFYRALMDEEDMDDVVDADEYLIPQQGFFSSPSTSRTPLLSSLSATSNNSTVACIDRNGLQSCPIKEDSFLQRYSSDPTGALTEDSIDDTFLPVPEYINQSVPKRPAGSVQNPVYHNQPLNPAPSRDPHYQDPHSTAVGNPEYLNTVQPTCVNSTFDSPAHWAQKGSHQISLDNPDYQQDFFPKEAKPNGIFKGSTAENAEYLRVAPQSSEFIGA

[17] = biological target: Alpha-1A adrenergic receptor (Homo sapiens) (UniProt P35348); conditions: Compound concentration 10.0 uM
[18] = biological target: 5-hydroxytryptamine receptor 3A (Homo sapiens) (UniProt P46098); conditions: Compound concentration 10.0 uM
Sequence of 5-hydroxytryptamine receptor 3A (Homo sapiens) (P46098 whole entry): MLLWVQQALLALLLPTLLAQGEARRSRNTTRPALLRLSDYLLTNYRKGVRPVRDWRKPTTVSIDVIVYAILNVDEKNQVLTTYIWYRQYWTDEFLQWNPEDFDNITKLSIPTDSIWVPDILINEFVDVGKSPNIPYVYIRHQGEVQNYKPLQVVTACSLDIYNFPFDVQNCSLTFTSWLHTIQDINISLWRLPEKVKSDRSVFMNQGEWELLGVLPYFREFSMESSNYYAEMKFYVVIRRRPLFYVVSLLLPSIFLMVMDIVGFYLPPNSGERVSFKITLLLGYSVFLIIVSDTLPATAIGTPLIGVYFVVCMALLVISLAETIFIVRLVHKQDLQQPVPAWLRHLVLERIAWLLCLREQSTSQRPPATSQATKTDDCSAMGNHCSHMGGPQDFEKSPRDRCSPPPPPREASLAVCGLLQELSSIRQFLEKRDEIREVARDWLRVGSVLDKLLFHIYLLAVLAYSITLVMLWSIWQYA

[19] = biological target: GABA-A receptor; anion channel (Homo sapiens) (UniProt P14867+P47870+P18507+P28472+P48169+Q99928+Q9UN88+P34903+O00591+O14764+Q8N1C3+P18505+P78334+P47869+P31644+Q16445); assay: GABA (non selective) CEREP screen; type: protein-complex assay; conditions: Compound concentration 1.0 uM
[20] = biological target: 5-hydroxytryptamine receptor 2B (Homo sapiens) (UniProt P41595); conditions: Compound concentration 10.0 uM
[21] = biological target: Mitogen-activated protein kinase 12 (Homo sapiens) (UniProt P53778); assay: p38gamma Invitrogen kinase panel; conditions: Compound concentration 10.0 uM
[22] = biological target: Oxysterols receptor LXR-alpha (Homo sapiens) (UniProt Q13133); assay: LXRalpha Indigo Bioscience nuclear receptor screen; conditions: Compound concentration 0.3 uM
Sequence of Oxysterols receptor LXR-alpha (Homo sapiens) (Q13133 whole entry): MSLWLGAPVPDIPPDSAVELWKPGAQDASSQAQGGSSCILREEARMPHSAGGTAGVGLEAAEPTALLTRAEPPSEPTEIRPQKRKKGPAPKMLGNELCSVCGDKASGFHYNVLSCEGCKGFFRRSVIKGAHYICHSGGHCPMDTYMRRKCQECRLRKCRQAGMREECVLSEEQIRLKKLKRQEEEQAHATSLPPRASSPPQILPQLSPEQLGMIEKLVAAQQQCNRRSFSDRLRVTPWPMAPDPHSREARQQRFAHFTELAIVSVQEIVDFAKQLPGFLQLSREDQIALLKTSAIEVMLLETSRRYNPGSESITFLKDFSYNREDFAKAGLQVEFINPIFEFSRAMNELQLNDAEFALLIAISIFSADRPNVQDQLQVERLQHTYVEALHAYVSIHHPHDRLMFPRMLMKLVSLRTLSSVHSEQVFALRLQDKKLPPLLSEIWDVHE

[23] = biological target: T2, Peroxisome proliferator-activated receptor delta (Homo sapiens) (UniProt Q03181); assay: (§2) PPARdelta In-house nuclear receptor screen; conditions: Compound concentration 3.0 uM
T2 sequence (whole entry): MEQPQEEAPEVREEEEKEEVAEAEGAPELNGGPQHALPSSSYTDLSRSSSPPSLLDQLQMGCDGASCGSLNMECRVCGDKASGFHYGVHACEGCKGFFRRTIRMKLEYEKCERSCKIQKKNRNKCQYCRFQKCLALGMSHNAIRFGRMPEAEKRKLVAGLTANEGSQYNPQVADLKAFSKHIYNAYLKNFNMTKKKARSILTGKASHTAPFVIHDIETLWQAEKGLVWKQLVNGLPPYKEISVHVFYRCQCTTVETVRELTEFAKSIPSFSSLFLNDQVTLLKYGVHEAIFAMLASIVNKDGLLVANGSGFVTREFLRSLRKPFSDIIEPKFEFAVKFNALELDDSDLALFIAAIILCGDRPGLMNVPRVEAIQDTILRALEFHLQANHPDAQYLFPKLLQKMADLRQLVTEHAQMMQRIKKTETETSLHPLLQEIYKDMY

[24] = biological target: Peroxisome proliferator-activated receptor delta (Homo sapiens, UniProt Q03181); assay: as §2
[25] = biological target: Cyclin-dependent kinase 5/CDK5 activator 1 (Homo sapiens) (UniProt Q00535+Q15078); assay: CDK5/p35 Invitrogen kinase panel; type: protein-complex assay; conditions: Compound concentration 10.0 uM
Sequence of Cyclin-dependent kinase 5/CDK5 activator 1 (Homo sapiens) (Q00535 whole entry): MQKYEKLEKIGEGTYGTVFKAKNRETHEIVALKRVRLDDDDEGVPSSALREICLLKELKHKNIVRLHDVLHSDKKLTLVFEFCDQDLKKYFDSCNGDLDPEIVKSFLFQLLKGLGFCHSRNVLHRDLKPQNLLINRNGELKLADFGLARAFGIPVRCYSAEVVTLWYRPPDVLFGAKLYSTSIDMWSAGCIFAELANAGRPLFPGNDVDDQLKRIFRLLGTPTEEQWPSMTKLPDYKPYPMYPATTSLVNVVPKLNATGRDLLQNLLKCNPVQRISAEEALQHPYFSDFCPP
Sequence of Cyclin-dependent kinase 5/CDK5 activator 1 (Homo sapiens) (Q15078 99-307 partner limits assumed): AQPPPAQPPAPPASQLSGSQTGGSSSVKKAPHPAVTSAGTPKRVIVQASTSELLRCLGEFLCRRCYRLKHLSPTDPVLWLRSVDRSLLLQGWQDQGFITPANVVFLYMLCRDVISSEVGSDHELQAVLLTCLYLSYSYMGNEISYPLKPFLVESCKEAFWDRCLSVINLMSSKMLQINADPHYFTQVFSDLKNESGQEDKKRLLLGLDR

COc1nc2ccc([C@@](O)(c3ccccc3)C3CCN(C(C)=O)CC3)cc2c(Cl)c1Cc1ccc(-n2cccn2)cc1 [JNJ-54119936]
inhibition [1]: -5.63% | inhibition [2]: 10.3% | inhibition [3]: 7% | inhibition [4]: -0.46% | inhibition [5]: -2.29% | inhibition ([6]; Compound concentration 1.0 uM): 45% | inhibition ([6]; Compound concentration 10.0 uM): 25% | inhibition [7]: 3% | inhibition ([8]; Compound concentration 0.3 uM): -8.5% | inhibition ([8]; Compound concentration 1.0 uM): 5.23% | inhibition [9]: -4.69% | IC50 [10]: ~5 µM | inhibition [11]: 17% | inhibition [12]: 0% | inhibition [13]: 54.6% | inhibition [14]: 10% | IC50 [15]: 0.03 µM (active) | inhibition [16]: -4% | inhibition [17]: 10.3% | inhibition [18]: 9.28% | inhibition [19]: 12% | inhibition [20]: 18.7% | inhibition [21]: 2% | inhibition [22]: -3.25% | inhibition [23]: 37.3% | IC50 [24]: 5.9 µM | inhibition [25]: -2%
